3 compounds from patent EP1019392B1, “TRICYCLIC AMIDES USEFUL FOR INHIBITION OF G-PROTEIN FUNCTION AND FOR TREATMENT OF PROLIFERATIVE DISEASES” (SCHERING CORPORATION, priority 1995, dated 1997) can be followed below.

Like-named read-outs stand apart in the source and are kept apart here. Bounds are passed on as bounds.

Assay [1] deals with Ras-CVLS processing in COS monkey kidney cells. The assay can be described thus: COS cell assay: inhibition of Ras-CVLS processing (Western blot). The assay is classed as cell-based. The source says:
• 1. In vitro enzyme assays: Inhibition of farnesyl protein transferase and geranylgeranyl protein transferase. Both farnesyl protein transferase (FPT) and geranylgeranyl protein transferase (GGPT) I were partially purified from rat brain by ammonium sulfate fractionation followed by Q-Sepharose (Pharmacia, Inc.) anion exchange chromatography essentially as described by Yokoyama et al (Yokoyama, K., et al., (1991), A protein geranylgeranyltransferase from bovine brain: Implications for protein prenylation specificity, Proc. Natl. Acad. Sci USA 88: 5302-5306, the disclosure of which is incorporated herein by reference thereto). Human farnesyl protein transferase was also expressed in E. coli, using cDNA clones encoding both the a and b subunits. The methods used were similar to those published (Omer, C. et al., (1993), Characterization of recombinant human farnesyl protein transferase: Cloning, expression, farnesyl diphosphate binding, and functional homology with yeast prenyl-protein transferases, Biochemistry 32:5167-5176). Human farnesyl protein transferase was partially-purified from the soluble protein fraction of E. coli as described above. […] Two forms of val^12-Ha-Ras protein were prepared as substrates for these enzymes, differing in their carboxy terminal sequence. One form terminated in cysteine-valine-leucine-serine (Ras-CVLS) the other in cystein-valine-leucine-leucine (Ras-CVLL). Ras-CVLS is a substrate for the farnesyl protein transferase while Ras-CVLL is a substrate for geranylgeranyl protein transferase I. The cDNAs encoding these proteins were constructed so that the proteins contain an amino-terminal extension of 6 histidine residues. Both proteins were expressed in Escherichia coli and purified using metal chelate affinity chromatography. The radiolabelled isoprenyl pyrophosphate substrates, [^3H]farnesyl pyrophosphate and [^3H]geranylgeranyl pyrophosphate, were purchased from DuPont/New England Nuclear. Several methods for measuring farnesyl protein transferase activity have been described (Reiss et al 1990, Cell 62: 81; Schaber et al 1990, J. Biol. Chem. 265: 14701; Manne et al 1990, PNAS 87: 7541; and Barbacid & Manne 1993, U.S. Patent No. 5,185,248). […] The reaction was allowed to proceed for 30 minutes at room temperature and then stopped with 0.5 ml of 4% sodium dodecyl sulfate (SDS) followed by 0.5 ml of cold 30% TCA. Samples were allowed to sit on ice for 45 minutes and precipitated Ras protein was then collected on GF/C filter paper mats using a Brandel cell harvester. Filter mats were washed once with 6% TCA, 2% SDS and radioactivity was measured in a Wallac 1204 Betaplate BS liquid scintillation counter. Percent inhibition was calculated relative to the DMSO vehicle control. The geranylgeranyl protein transferase I assay was essentially identical to the farnesyl protein transferase assay described above, with two exceptions: [^3H]geranylgeranylpyrophosphate replaced farnesyl pyrophosphate as the isoprenoid donor and Ras-CVLL was the protein acceptor. […] Cell-Based Assay: Transient expression of val^12-Ha-Ras-CVLS and val^12-Ha-Ras-CVLL in COS monkey kidney cells: Effect of farnesyl protein transferase inhibitors on Ras processing and on disordered cell growth induced by transforming Ras. COS monkey kidney cells were transfected by electroporation with the plasmid pSV-SPORT (Gibco/BRL) containing a cDNA insert encoding either Ras-CVLS or Ras-CVLL, leading to transient overexpression of a Ras substrate for either farnesyl protein transferase or geranylgeranyl protein transferase I, respectively (see above). Following electroporation, cells were plated into 6-well tissue culture dishes containing 1.5 ml of Dulbecco's-modified Eagle's media (GIBCO, Inc.) supplemented with 10% fetal calf serum and the appropriate farnesyl protein transferase inhibitors. After 24 hours, media was removed and fresh media containing the appropriate drugs was re-added.
Background: A western blot detects proteins with antibodies after separation by electrophoresis.

For assay [2], the system named is SW620-BAG human colon carcinoma cells expressing an activated K-ras gene. The assay is described as follows: Cell Mat Assay, SW620 tumor cells. Format: cell-based. To be noted: Mat assay.
In assay [3] the target is T1, geranylgeranyl protein transferase (GGPT) I (Rattus norvegicus, UniProt P53610+Q04631).
T1 construct: geranylgeranyl protein transferase (GGPT) I were partially purified from rat brain; from tissue; host or cells: rat brain
The assay can be described thus: In vitro enzyme assay: inhibition of geranylgeranyl protein transferase I (Ras-CVLL as acceptor). To be noted: Table 2; Ras-CVLL as isoprenoid acceptor. The assay is classed as biochemical. The source says:
• 1. In vitro enzyme assays: Inhibition of farnesyl protein transferase and geranylgeranyl protein transferase. Both farnesyl protein transferase (FPT) and geranylgeranyl protein transferase (GGPT) I were partially purified from rat brain by ammonium sulfate fractionation followed by Q-Sepharose (Pharmacia, Inc.) anion exchange chromatography essentially as described by Yokoyama et al (Yokoyama, K., et al., (1991), A protein geranylgeranyltransferase from bovine brain: Implications for protein prenylation specificity, Proc. Natl. Acad. Sci USA 88: 5302-5306, the disclosure of which is incorporated herein by reference thereto). Human farnesyl protein transferase was also expressed in E. coli, using cDNA clones encoding both the a and b subunits. The methods used were similar to those published (Omer, C. et al., (1993), Characterization of recombinant human farnesyl protein transferase: Cloning, expression, farnesyl diphosphate binding, and functional homology with yeast prenyl-protein transferases, Biochemistry 32:5167-5176). Human farnesyl protein transferase was partially-purified from the soluble protein fraction of E. coli as described above. The tricyclic farnesyl protein transferase inhibitors disclosed herein inhibited both human and rat enzyme with similar potencies. Two forms of val^12-Ha-Ras protein were prepared as substrates for these enzymes, differing in their carboxy terminal sequence. One form terminated in cysteine-valine-leucine-serine (Ras-CVLS) the other in cystein-valine-leucine-leucine (Ras-CVLL). Ras-CVLS is a substrate for the farnesyl protein transferase while Ras-CVLL is a substrate for geranylgeranyl protein transferase I. The cDNAs encoding these proteins were constructed so that the proteins contain an amino-terminal extension of 6 histidine residues. Both proteins were expressed in Escherichia coli and purified using metal chelate affinity chromatography. The radiolabelled isoprenyl pyrophosphate substrates, [^3H]farnesyl pyrophosphate and [^3H]geranylgeranyl pyrophosphate, were purchased from DuPont/New England Nuclear. Several methods for measuring farnesyl protein transferase activity have been described (Reiss et al 1990, Cell 62: 81; Schaber et al 1990, J. Biol. Chem. 265: 14701; Manne et al 1990, PNAS 87: 7541; and Barbacid & Manne 1993, U.S. Patent No. 5,185,248). The activity was assayed by measuring the transfer of [^3H]farnesyl from [^3H]farnesyl pyrophosphate to Ras-CVLS using conditions similar to those described by Reiss et al. 1990 (Cell 62: 81) The reaction mixture contained 40 mM Hepes, pH 7.5; 20 mM magnesium chloride; 5 mM dithiothreitol; 0.25 µM [^3H]farnesyl pyrophosphate; […] Q-Sepharose-purified farnesyl protein transferase; the indicated concentration of tricyclic compound or dimethylsulfoxide (DMSO) vehicle control (5% DMSO final); and […] Ras-CVLS in a total volume of […]. The reaction was allowed to proceed for 30 minutes at room temperature and then stopped with 0.5 ml of 4% sodium dodecyl sulfate (SDS) followed by 0.5 ml of cold 30% TCA. Samples were allowed to sit on ice for 45 minutes and precipitated Ras protein was then collected on GF/C filter paper mats using a Brandel cell harvester. Filter mats were washed once with 6% TCA, 2% SDS and radioactivity was measured in a Wallac 1204 Betaplate BS liquid scintillation counter. Percent inhibition was calculated relative to the DMSO vehicle control. The geranylgeranyl protein transferase I assay was essentially identical to the farnesyl protein transferase assay described above, with two exceptions: [^3H]geranylgeranylpyrophosphate replaced farnesyl pyrophosphate as the isoprenoid donor and Ras-CVLL was the protein acceptor. This is similar to the assay reported by Casey et al (Casey, P.J., et al., (1991), Enzymatic modification of proteins with a geranylgeranyl isoprenoid, Proc. Natl. Acad. Sci, USA 88: 8631-8635, the disclosure of which is incorporated herein by reference thereto). • 2. […]

Assay [4] has as its system T24-BAG4 human bladder carcinoma cells expressing an activated H-ras gene. The assay is described as follows: Cell Mat Assay, T24 tumor cells. As to conditions: read-out: Tumor (T-24) IC50. The assay is classed as cell-based.
Assay [5] deals with DLD-1-BAG human colon carcinoma cells expressing as activated K-ras gene. The assay can be described thus: Cell Mat Assay, DLD-1 tumor cells. The assay is classed as cell-based. As to conditions: Mat assay.
Assay [6] deals with Normal human HEPM fibroblasts. The assay can be described thus: Cell Mat Assay, normal cell mat. Format: cell-based. As to conditions: normal monolayer.
For assay [7], the system named is DLD-1 (human colon carcinoma cells, ATCC # CCL 221). The assay can be described thus: In Vivo Anti-Tumor Studies, subcutaneous DLD-1 tumors. More on the design: species or system athymic nu/nu female mice. To be noted: Mus musculus, DLD-1, po, QID, 4 weeks, range over the listed compounds; for inhibition in vivo at 10 mg/kg: 10 mg/kg p.o.; for inhibition in vivo at 50 mg/kg: 50 mg/kg p.o. The text has this: Tumor cells (5 X 10^5 to 8 X 10^6) of DLD-1 (human colon carcinoma cells, ATCC # CCL 221) are innolculated subcutaneously into the flank of 5-6 week o;d athymic nu/nu female mice.

Assay [8] deals with T2, farnesyl protein transferase (FPT) (Rattus norvegicus, UniProt Q02293+Q04631).
T2 construct: were partially purified from rat brain by ammonium sulfate fractionation followed by Q-Sepharose; from tissue; host or cells: rat brain
The assay can be described thus: In vitro enzyme assay: inhibition of farnesyl protein transferase (transfer of [3H]farnesyl to Ras-CVLS). Format: biochemical. The method, then: • 1. In vitro enzyme assays: Inhibition of farnesyl protein transferase and geranylgeranyl protein transferase. […] Human farnesyl protein transferase was also expressed in E. coli, using cDNA clones encoding both the a and b subunits. […] Human farnesyl protein transferase was partially-purified from the soluble protein fraction of E. coli as described above. […] Two forms of val^12-Ha-Ras protein were prepared as substrates for these enzymes, differing in their carboxy terminal sequence. One form terminated in cysteine-valine-leucine-serine (Ras-CVLS) the other in cystein-valine-leucine-leucine (Ras-CVLL). Ras-CVLS is a substrate for the farnesyl protein transferase while Ras-CVLL is a substrate for geranylgeranyl protein transferase I. The cDNAs encoding these proteins were constructed so that the proteins contain an amino-terminal extension of 6 histidine residues. Both proteins were expressed in Escherichia coli and purified using metal chelate affinity chromatography. The radiolabelled isoprenyl pyrophosphate substrates, [^3H]farnesyl pyrophosphate and [^3H]geranylgeranyl pyrophosphate, were purchased from DuPont/New England Nuclear. […] The reaction was allowed to proceed for 30 minutes at room temperature and then stopped with 0.5 ml of 4% sodium dodecyl sulfate (SDS) followed by 0.5 ml of cold 30% TCA. Samples were allowed to sit on ice for 45 minutes and precipitated Ras protein was then collected on GF/C filter paper mats using a Brandel cell harvester. […] Percent inhibition was calculated relative to the DMSO vehicle control. The geranylgeranyl protein transferase I assay was essentially identical to the farnesyl protein transferase assay described above, with two exceptions: [^3H]geranylgeranylpyrophosphate replaced farnesyl pyrophosphate as the isoprenoid donor and Ras-CVLL was the protein acceptor. […] Cell-Based Assay: Transient expression of val^12-Ha-Ras-CVLS and val^12-Ha-Ras-CVLL in COS monkey kidney cells: Effect of farnesyl protein transferase inhibitors on Ras processing and on disordered cell growth induced by transforming Ras. COS monkey kidney cells were transfected by electroporation with the plasmid pSV-SPORT (Gibco/BRL) containing a cDNA insert encoding either Ras-CVLS or Ras-CVLL, leading to transient overexpression of a Ras substrate for either farnesyl protein transferase or geranylgeranyl protein transferase I, respectively (see above). Following electroporation, cells were plated into 6-well tissue culture dishes containing 1.5 ml of Dulbecco's-modified Eagle's media (GIBCO, Inc.) supplemented with 10% fetal calf serum and the appropriate farnesyl protein transferase inhibitors. After 24 hours, media was removed and fresh media containing the appropriate drugs was re-added. 48 hours after electroporation cells were examined under the microscope to monitor disordered cell growth induced by transforming Ras. Cells expressing transforming Ras become more rounded and refractile and overgrow the monolayer, reminiscent of the transformed phenotype. Cells were then photographed, washed twice with 1 ml of cold phosphate-buffered saline (PBS) and removed from the dish by scraping with a rubber policeman into 1 ml of a buffer containing 25 mM Tris, pH 8.0; 1 mM ethylenediamine tetraacetic acid; 1 mM phenylmethylsulfonyl fluoride; […] leupeptin; and 0.1 mM pepstatin. Cells were lysed by homogenization and cell debris was removed by centrifugation at 2000 x g for 10 min. Cellular protein was precipitated by addition of ice-cold trichloroacetic acid and redissolved in […] of SDS-electrophoresis sample buffer. […] Proteins resolved on the gels were electroblotted onto nitrocellulose membranes for immunodetection. […] After washing, membranes were incubated for one hour at room temperature with a 1:5000 dilution of secondary antibody, rabbit anti-rat IgG conjugated to horseradish peroxidase, in PBS containing 1% fetal calf serum.

The mark [9] stands for this setting: Table 2, comparison with GGPT, read-out: ENZYME INHIBITION FPT IC50.

For the compound `NC(=O)N1CCC(CC(=O)N2CCC(=C3c4ncc(Br)cc4CCc4cc(Cl)cc(Br)c43)CC2)CC1` (single isomer, unassigned) [Example 8B], the half-maximal inhibitory concentration (IC50) (commonly the midpoint of a concentration-inhibition curve) in assay [1] was 280 nM; in assay [2] it was 3100 nM; in assay [3], above 60000 nM; in assay [4], below 1600 nM; in assay [5], below 1600 nM; in assay [6], above 25000 nM. Also, the inhibition in vivo (commonly the drop in the measured response relative to a control, in per cent) at 10 mg/kg in assay [7] fell in the range of 7 to 50%. For the same compound, the inhibition in vivo at 50 mg/kg in assay [7] was in the range of 35.4 to 83%.

In the case of `NC(=O)N1CCC(CC(=O)N2CCC(C3c4ccc(Cl)cc4CCc4cc(Br)cnc43)CC2)CC1` (stereo not drawn) [Example 4], the IC50 in assay [3] was above 35700 nM; in assay [4] (Homo sapiens), 3100 nM; in assay [8] (Table 1, partially purified rat brain FPT, Ras-CVLS, read-out: FPT IC50) it was 46 nM; in assay [8] (setting [9]), 46 nM; in assay [6] (Homo sapiens, Fibroblast), above 25000 nM. The inhibition in vivo at 10 mg/kg in assay [7] fell in the range of 7 to 50%. In assay [7], this compound yielded an inhibition in vivo at 50 mg/kg of 35.4 to 83%.

`O=C(Cc1cc[n+]([O-])cc1)N1CCC(=C2c3ncc(Br)cc3CCc3cc(Cl)cc(Br)c32)CC1` (single isomer, unassigned) [Example 7B]: the IC50 in assay [3] was above 66000 nM; in assay [8] (FPT IC50, Table 1, partially purified rat brain FPT, Ras-CVLS) it was below 3 nM; in assay [8] (setting [9]), below 3 nM.
